Reference: the supplement of paper PMC12420376

Test system: OVCAR8
Assay: cancer cell viability relative to untreated control; higher = less cytotoxic
Conditions: 72 h
Protocol: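 KURAMOCHI or OVCAR8 cells were grown in monoculture or in co-culture with WI38 or patient-derived 030F fibroblasts and treated for 72 h with a dose matrix of carboplatin combined with birinapant or vorinostat (doses in nM). Cancer cell viability was measured by CK8/18 immunofluorescence imaging and expressed as % of untreated control, given as mean with SD.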

O=C(O)C1(C(=O)O)CCC1.[NH2-].[NH2-].[Pt+2] [Carboplatin] + CC[C@H](NC(=O)[C@H](C)NC)C(=O)N1C[C@@H](O)C[C@H]1Cc1c(-c2[nH]c3cc(F)ccc3c2C[C@@H]2C[C@H](O)CN2C(=O)[C@H](CC)NC(=O)[C@H](C)NC)[nH]c2cc(F)ccc12 [Birinapant]
cancer cell viability [%]
Conditions	partner drug concentration 0 nM	partner drug concentration 0.1 nM	partner drug concentration 1 nM	partner drug concentration 10 nM	partner drug concentration 100 nM	partner drug concentration 1000 nM
carboplatin concentration 10 nM, co-cultured fibroblast: 030F	95.9	93.4	86.9	85.6	53.2	11.3
carboplatin concentration 10 nM, co-cultured fibroblast: WI38	112	112	98.5	99.2	59.9	9.28
carboplatin concentration 10 nM, co-cultured fibroblast: none (monoculture)	100	107	102	96.1	68.1	14.5
carboplatin concentration 100 nM, co-cultured fibroblast: 030F	97.7	89.9	85.8	92.3	46	12.3
carboplatin concentration 100 nM, co-cultured fibroblast: WI38	103	101	102	98.1	52.4	10.8
carboplatin concentration 100 nM, co-cultured fibroblast: none (monoculture)	101	99.5	101	103	71.7	13.4
carboplatin concentration 1000 nM, co-cultured fibroblast: 030F	96.9	83.5	90.8	96.9	50.5	14.7
carboplatin concentration 1000 nM, co-cultured fibroblast: WI38	107	98.1	104	92.6	56.6	9.2
carboplatin concentration 1000 nM, co-cultured fibroblast: none (monoculture)	101	102	98.6	105	79.7	16.3
carboplatin concentration 1e+05 nM, co-cultured fibroblast: 030F	23.2	34.9	41.2	34.2	15.9	8.74
carboplatin concentration 1e+05 nM, co-cultured fibroblast: WI38	10.6	36.2	51.3	40.3	21.4	3
carboplatin concentration 1e+05 nM, co-cultured fibroblast: none (monoculture)	23.1	61	58.4	60.6	46.2	6.42
carboplatin concentration 10000 nM, co-cultured fibroblast: 030F	52.3	72.4	90.8	85.1	34.3	9.13
carboplatin concentration 10000 nM, co-cultured fibroblast: WI38	41.6	82.3	89.1	95.9	49.7	7.2
carboplatin concentration 10000 nM, co-cultured fibroblast: none (monoculture)	56.5	90.3	92.5	100	64.8	12.6
